In ChEMBL document CHEMBL6153159, “Eperisone Analogs, Rescuers of MiaB Defects As a Prokaryotic Homologue of CDKAL1, Suppress Blood Glucose Elevation in Rats” (ACS Med Chem Lett, 2025):
The source made the active and inactive calls. The rule behind the calls is not given here.

Columns and labels:
[1] = molecular target: T1, Threonylcarbamoyladenosine tRNA methylthiotransferase (Homo sapiens) (UniProt Q5VV42); test: Rescue of mistranslation activity in CDKAL1 (unknown origin) extracted from Escherichia coli harboring MIaB deficient at 10 uM incubated for 1 hr by dual luciferase assay
T1 sequence (whole entry): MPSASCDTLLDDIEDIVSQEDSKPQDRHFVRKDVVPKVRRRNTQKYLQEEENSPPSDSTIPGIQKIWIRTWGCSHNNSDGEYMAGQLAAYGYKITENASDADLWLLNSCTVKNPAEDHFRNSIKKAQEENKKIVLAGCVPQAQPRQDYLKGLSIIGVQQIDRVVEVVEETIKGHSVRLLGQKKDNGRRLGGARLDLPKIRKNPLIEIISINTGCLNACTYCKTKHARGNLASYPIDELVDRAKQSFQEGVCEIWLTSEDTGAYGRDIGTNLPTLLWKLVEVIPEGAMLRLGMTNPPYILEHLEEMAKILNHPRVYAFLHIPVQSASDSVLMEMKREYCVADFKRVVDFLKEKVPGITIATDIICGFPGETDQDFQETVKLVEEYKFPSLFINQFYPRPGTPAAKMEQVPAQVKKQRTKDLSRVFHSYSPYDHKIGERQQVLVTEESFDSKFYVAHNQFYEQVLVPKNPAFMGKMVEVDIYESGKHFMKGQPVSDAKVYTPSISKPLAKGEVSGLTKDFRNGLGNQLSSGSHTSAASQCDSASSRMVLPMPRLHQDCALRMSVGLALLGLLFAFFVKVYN

[2] = tested on: Rattus norvegicus; test: Hypoglycemic effect in male Wister rat assessed as reduction in blood glucose level at 100 mg/kg, sc measured immediately after oral glucose challenge by OGTT analysis; type: functional, organism-based; conditions: time 0.0 min
[3] = tested on: MIN6; test: Induction of insulin secretion in mouse MIN6 cells at 3 uM incubated for 24 hrs by ELISA method; type: functional, cell-based
[4] = tested on: MIN6; test: Cytotoxicity against mouse MIN6 cells at 10 uM by MTT assay relative to control; type: toxicity, cell-based; conditions: min6, 10 µM
[5] = Drug concentration in Wister rat plasma at 100 mg/kg, sc measured after 60 mins; type: ADME, organism-based; conditions: Wistar
[6] = Drug concentration in Wister rat plasma at 100 mg/kg, po measured after 60 mins; type: ADME, organism-based; conditions: Wistar
[7] = tested on: Rattus norvegicus; test: Antihyperglycemic activity in male Wister rat assessed as reduction in blood glucose level at 100 mg/kg, sc measured at 30 mins after oral glucose challenge by OGTT analysis; type: functional, organism-based
[8] = tested on: Rattus norvegicus; test: Antihyperglycemic activity in male Wister rat assessed as reduction in blood glucose level at 100 mg/kg, sc measured at 60 mins after oral glucose challenge by OGTT analysis; type: functional, organism-based
[9] = tested on: MIN6; test: Induction of insulin secretion in mouse MIN6 cells at 10 uM incubated for 24 hrs by ELISA method; type: functional, cell-based

Row | Ratio [1] | Structure (SMILES) | further results
1 | 0.8 | CCCCOc1ccc(C(=O)C(C)CN2CCCCC2)cc1 (racemic) | –
2 | 0.75 | CCc1ccc(C(=O)C(C)CC2CCNCC2)cc1 (racemic) | –
3 | 0.84 | CC(CN1CCCCC1)C(=O)c1ccc(Br)cc1 (racemic) | –
4 | 1.01 | CCc1ccc(C(=O)C(C)CN2CCCCCC2)cc1 (racemic) | –
5 | 0.98 | CCc1ccccc1C(=O)C(C)CN1CCCCC1 (racemic) | –
6 | 0.96 | CSCCOc1ccc(C(=O)C(C)CN2CCCCC2)cc1 (racemic) | –
7 | 1.29 | CCc1ccc(C(=O)C(C)CN2CCOCC2)cc1 (racemic) | –
8 | 0.66 | CCc1ccc(C(=O)C(C)(C)CN2CCCCC2)cc1 | –
9 | 0.82 | CC(CN1CCCCC1)C(=O)c1ccc(OCCO)cc1 (racemic) | –
10 | 0.95 | CCc1ccc(C(=O)C(C)CNC2CCCCC2)cc1 (racemic) | –
11 | 1.3 | CC(CN1CCCCC1)C(=O)c1ccc(C2CCCCC2)cc1 (racemic) | –
12 | 0.78 | CC(CN1CCCCC1)C(=O)c1ccc(C(C)C)cc1 (racemic) | –
13 | – | CC(C)[C@H]1CC[C@H](C(=O)N[C@H](Cc2ccccc2)C(=O)O)CC1 | Activity [2]: Active
14 | 1.01 | CCc1ccc(C(=O)C(C)CN2CCCC2)cc1 (racemic) | –
15 | 1.08 | CC(CN1CCCCC1)C(=O)c1ccc(F)cc1 (racemic) | –
16 | 0.44 | CC(CN1CCCCC1)C(=O)c1ccc(C(C)(C)C)cc1.Cl (racemic) | Activity [3]: Active; Activity [4]: 4%; concentration at 1 h [5]: > 15 µM; concentration at 1 h [6]: ≤ 2 µM; Activity [7]: Active; Activity [8]: Active; Activity [2]: inactive
17 | 0.95 | CC(CN1CCCCC1)C(=O)c1cccc(C(C)(C)C)c1 (racemic) | –
18 | 0.53 | COCCOc1ccc(C(=O)C(C)CN2CCCCC2)cc1.Cl (racemic) | Activity [9]: Active; Activity [4]: 3%; concentration at 1 h [5]: > 15 µM; concentration at 1 h [6]: ≤ 2 µM; Activity [7]: Active; Activity [8]: Active; Activity [2]: inactive
19 | 0.7 | CCc1ccc(C(=O)C(C)CN2CCCCC2)cc1 (stereo not drawn) | –
20 | 0.88 | CC(C)COc1ccc(C(=O)C(C)CN2CCCCC2)cc1 (racemic) | –
21 | 0.99 | Cc1ccc(C(=O)C(C)CN2CCCCC2)cc1 (racemic) | –
22 | 0.8 | CC(C)(C)c1ccc(C(=O)CCN2CCCCC2)cc1 | –

Row | Ratio [1] | Structure (SMILES) | further results
23 | 0.98 | CCc1ccc(C(=O)C(C)CN2CCC(C)CC2)cc1 (racemic) | –
24 | 0.71 | CC(CN1CCCCC1)C(=O)c1ccc(O)cc1 (racemic) | –
25 | 0.93 | CC(C)Oc1ccc(C(=O)C(C)CN2CCCCC2)cc1 (racemic) | –
26 | 0.85 | CCCOc1ccc(C(=O)C(C)CN2CCCCC2)cc1 (racemic) | –
27 | 0.84 | CCOc1ccc(C(=O)C(C)CN2CCCCC2)cc1 (racemic) | –
28 | 1.01 | CCCc1ccc(C(=O)C(C)CN2CCCCC2)cc1 (racemic) | –
29 | 1.16 | CC(C)(C)c1ccc(C(=O)C(CN2CCCCC2)C(=O)O)cc1 (racemic) | –
30 | 0.97 | CCc1ccc(C(=O)C(C)CN2CCSCC2)cc1 (racemic) | –
31 | 0.86 | CC(CN1CCCCC1)C(=O)c1ccc(Cl)cc1 (racemic) | –
32 | 0.73 | CCC(CN1CCCCC1)C(=O)c1ccc(C(C)(C)C)cc1 (racemic) | –
33 | 1.05 | CC(CN1CCCCC1)C(=O)c1ccc(CC(C)(C)C)cc1 (racemic) | –
34 | 0.99 | CCc1ccc(C(=O)C(C)CN2CCCCC2)o1 (racemic) | –
35 | 1.04 | CCc1ccc(C(=O)C(C)Cc2ccncc2)cc1 (racemic) | –
36 | 0.8 | CCc1ccc(C(=O)CCN2CCCCC2)cc1 | –
37 | 0.7 | CCc1ccc(C(=O)C(C)CN2CCN(C)CC2)cc1 (racemic) | –
38 | 0.71 | CCc1ccc(C(=O)C(C)CN2CCN(CC)CC2)cc1 (racemic) | –
39 | 1.13 | CCc1ccc(C(=O)C(C)CN2CCC(OC)CC2)cc1 (racemic) | –
40 | 1.01 | CCc1ccc(C(=O)C(C)CN2CCC(c3ccccc3)CC2)cc1 (racemic) | –
41 | 0.63 | CCc1ccc(C(=O)C(C)CN2CCCCC2)s1 (racemic) | –
42 | 0.87 | CC(CN1CCCCC1)C(=O)c1ccc(C(F)(F)F)cc1 (racemic) | –
43 | 0.85 | CCC(C)(C)c1ccc(C(=O)C(C)CN2CCCCC2)cc1 (racemic) | –
44 | 0.95 | CCc1cccc(C(=O)C(C)CN2CCCCC2)c1 (racemic) | –
